The source of these data is patent US11167007B2, “FOXM1 modulators and uses thereof” (City of Hope, priority 2016, dated 2021).

SMILES strings stand for the structures.

The target in assay [1] is T1, AR (Homo sapiens, UniProt P10275).
T1 sequence (P10275 1-920): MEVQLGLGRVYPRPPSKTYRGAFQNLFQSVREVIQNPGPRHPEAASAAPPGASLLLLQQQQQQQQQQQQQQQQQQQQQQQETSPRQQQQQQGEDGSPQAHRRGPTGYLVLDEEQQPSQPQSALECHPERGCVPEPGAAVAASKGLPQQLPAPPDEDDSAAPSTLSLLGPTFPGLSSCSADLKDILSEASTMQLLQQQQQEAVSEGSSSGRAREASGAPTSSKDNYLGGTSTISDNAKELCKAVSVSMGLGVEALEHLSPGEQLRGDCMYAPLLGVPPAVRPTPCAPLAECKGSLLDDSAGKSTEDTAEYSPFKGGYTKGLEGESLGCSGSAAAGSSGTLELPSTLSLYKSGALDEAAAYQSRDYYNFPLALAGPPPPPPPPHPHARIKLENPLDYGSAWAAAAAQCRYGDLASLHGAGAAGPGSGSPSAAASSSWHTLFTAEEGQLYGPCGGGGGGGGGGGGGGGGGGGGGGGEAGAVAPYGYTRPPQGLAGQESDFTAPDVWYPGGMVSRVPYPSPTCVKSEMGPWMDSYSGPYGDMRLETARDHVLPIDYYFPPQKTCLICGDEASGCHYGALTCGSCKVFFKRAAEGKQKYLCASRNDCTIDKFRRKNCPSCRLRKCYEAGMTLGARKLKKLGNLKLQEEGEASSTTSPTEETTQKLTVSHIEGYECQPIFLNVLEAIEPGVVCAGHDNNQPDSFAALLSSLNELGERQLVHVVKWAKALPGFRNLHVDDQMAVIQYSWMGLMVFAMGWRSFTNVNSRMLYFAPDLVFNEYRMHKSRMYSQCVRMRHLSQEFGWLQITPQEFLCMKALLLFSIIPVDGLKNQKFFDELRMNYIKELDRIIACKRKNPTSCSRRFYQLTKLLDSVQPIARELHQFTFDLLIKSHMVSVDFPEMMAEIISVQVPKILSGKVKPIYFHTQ
Briefly: Androgen-responsive luciferase reporter assay in ReNcell CX neuronal cells. It is filed as cell-based. The arrangement: endogenous in cells; host or cells: ReNcell CX. The conditions noted are these: FIG. 2B. An excerpt: Luciferase Reporter Assay. Cells were transfected using Lipofectamine Plus (Invitrogen) with a normalization plasmid (pRL-SV40, Promega) and an androgen responsive plasmid (MMTV-luciferase or PSA-luciferase) as described in Jones et al, ACS Chem Biol, 3(7):412-8 (2008), and, where indicated, with an shRNA plasmid targeting FOXM1 (adapted for mouse FOXM1 sequence targeting) a scrambled control shRNA plasmid, or ARQ24 or ARQ65 plasmids. Christensen et al, PLoS One, 8(1):e54556 (2013). The following day, cells and drugs were distributed to 96-well plates. 24 hours later, luciferase activity was assessed by a dual luciferase assay kit (Promega) on the Tecan plate reader. Samples were run in quadruplicates and a Student's t test was performed to determine significance, where p<0.05 was considered significant.
The ability of thiostrepton to inhibit AR activity in additional neuronal cells, including ReNcell CX cells PC12 cells, and in rat L6 skeletal muscle cells was examined (FIG. 2B). Donato et al, BMC Neurosci, 8:36 (2007); Yaffe, Proc Natl Acad Sci USA, 61(2):477-83 (1968).
A general note: In a reporter assay the amount or activity of a reporter protein is the signal.

For assay [2], the target named is T1, AR. Briefly: FRET-based AR conformation change reporter (CARY) in HEK293 kidney cells. The arrangement: Full length AR with cyan fluorescent protein (CFP) or yellow fluorescent protein (YFP) fused to either end (CARY); expressed in transfected cells. It is filed as cell-based. As to the method:
Creation of stable C-AR-Y reporter cell lines. Cell lines listed above were either transfected with a plasmid or a virus containing the CFP-AR-YFP construct preceding an IRES and hygromycin resistance gene and clonal stable cell lines selected. Qualification criteria for the transfected cell lines were described by Jones et al, ACS Chem Biol, 3(7):412-8 (2008).
Screen for AR-modulators. Screening was performed essentially as described by Jones et al, ACS Chem Biol, 3(7):412-8 (2008). Briefly, C-AR-Y reporter GTI-7 were transferred to 96 well plates and treated with library compounds for 24 hours. […] The compounds to be tested were from the NCI/DTP Open Chemical Repository's Approved Oncology Drugs Set II, Diversity Set II and Mechanistic Set. […] After 24 hours, medium was aspirated and FRET was measured as previously described using a monochromator-based fluorescence plate reader (M1000, Tecan, Inc.). Jones et al, ACS Chem Biol, 3(7):412-8 (2008). […]
In order to identify potential cell-type selective AR modulators, the FRET-based assay of AR conformation change was utilized. […] This produces an accurate and quantifiable read-out of AR activity. […] Candidate hits were then further evaluated by dose response. […] In addition to FRET, AR transcriptional activity was also assessed in several cell lines by transfecting cells with a luciferase reporter driven by the human PSA promoter. […]

For `C=C(NC(=O)C(=C)NC(=O)c1csc(C2=N[C@@H]3c4csc(n4)[C@H]4NC(=O)c5csc(n5)[C@H]([C@](C)(O)[C@@H](C)O)NC(=O)[C@H]5CSC(=N5)/C(=C/C)NC(=O)[C@H]([C@@H](C)O)NC(=O)c5csc(n5)[C@]3(CC2)NC(=O)[C@H](C)NC(=O)C(=C)NC(=O)[C@H](C)NC(=O)[C@H]([C@@H](C)CC)N[C@@H]2C=Cc3c([C@H](C)O)cc(nc3[C@H]2O)C(=O)O[C@@H]4C)n1)C(N)=O` [thiostrepton], the “inhibition of AR activity (luciferase)” value at AR [1] was “inhibited AR activity”.
Regarding `C=C(NC(=O)C(=C)NC(=O)c1csc(C2=N[C@@H]3c4csc(n4)[C@H]4NC(=O)c5csc(n5)[C@H]([C@](C)(O)[C@@H](C)O)NC(=O)[C@H]5CSC(=N5)/C(=C/C)NC(=O)[C@H]([C@@H](C)O)NC(=O)c5csc(n5)[C@]3(CC2)NC(=O)[C@H](C)NC(=O)C(=C)NC(=O)C(=C)NC(=O)[C@H](C(C)C)N[C@@H]2C=Cc3c([C@H](C)O)cc(nc3[C@H]2O)C(=O)O[C@@H]4C)n1)C(N)=O` [NSC285116, siomycin A], the “AR inhibitor activity in words” value at AR [2] is on record as “some activity”.
